# Data reported in paper PMC6443933, “Antagonizing Retinoic Acid-Related-Orphan Receptor Gamma Activity Blocks the T Helper 17/Interleukin-17 Pathway Leading to Attenuated Pro-inflammatory Human Keratinocyte and Skin Responses” (Frontiers in Immunology, 2019).
# What was measured:
# RORα = tested on: T1, RORα; test: RORα LBD-GAL4 reporter gene assay in Jurkat cells; format: cell-based, human
# T1 construct: RORα and RORβ we performed LBD-GAL4 reporter gene assays; expressed in transfected cells; host or cells: Jurkat cells stably carrying pGL4.35
# Method: Selectivity against other ROR family members was assessed in a GAL4 reporter gene assay as previously described ([44]). Briefly, Jurkat cells stably expressing the pGL4.35 plasmid (Promega) containing nine GAL4 binding sites inducing the transcription of the luciferase reporter gene were transiently transfected with the human RORα, RORβ or RORγt-LBD/GAL4-DBD constructs. After 24 h post-transfection, cells were incubated with Cpd A for an additional 24 h before luciferase activity was determined using an EnVision Multilabel Plate Reader (Perkin Elmer).
# full-length RORγt = target: T2, full-length RORγt (Homo sapiens, UniProt P51449); test: 4 x RORE luciferase reporter assay in HUT78 T-cells expressing full-length RORγt; format: cell-based; details: CD3 antibody plus PMA, 48 h, read-out: IC50, 4 x RORE-driven luciferase activity
# T2 construct: HUT78 T-cells stably expressing full-length eGFP-RORγt; eGFP; expressed in transfected cells
# T2 sequence (P51449 1-497 isoform P51449-2): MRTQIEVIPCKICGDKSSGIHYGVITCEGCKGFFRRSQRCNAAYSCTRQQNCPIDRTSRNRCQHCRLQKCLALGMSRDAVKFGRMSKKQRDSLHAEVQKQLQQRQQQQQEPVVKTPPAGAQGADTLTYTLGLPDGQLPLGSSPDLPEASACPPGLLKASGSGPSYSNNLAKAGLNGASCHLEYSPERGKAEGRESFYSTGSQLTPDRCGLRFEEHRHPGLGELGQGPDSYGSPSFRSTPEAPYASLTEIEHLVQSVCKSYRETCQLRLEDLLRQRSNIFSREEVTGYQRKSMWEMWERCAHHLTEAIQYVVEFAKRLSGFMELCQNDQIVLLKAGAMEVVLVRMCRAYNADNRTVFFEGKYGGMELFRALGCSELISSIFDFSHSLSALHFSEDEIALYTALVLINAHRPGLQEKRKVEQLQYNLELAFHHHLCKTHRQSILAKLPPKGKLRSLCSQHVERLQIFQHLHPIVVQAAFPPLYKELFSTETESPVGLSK
# Excerpt: HUT78 T-cells stably expressing full-length eGFP-RORγt or eGFP-empty vector were generated as described before ([45]). Cells were transfected with plasmids containing 4 × ROREs inserted into the pGL4.17 luciferase Firefly reporter plasmid (kindly provided by Dr. Juergen Reinhardt, Novartis). As a control construct, a mutated or a non-functional form of 4 × RORE (Mut-RORE), was transfected in eGFP-RORγt HUT78 T-cells. The plasmids contained the following sequences where the bold nucleotides represent the putative RORγt binding site or the mutated form of the RORE:
# Two days after transfection, cells were incubated in X-vivo 15 medium containing 10% FCS and 700 μg/ml Geneticin (Corning) and stable clones expressing the 4 × ROREs or mutated-ROREs were obtained by limiting dilution. The luciferase expression of the individual cell clones was measured using Luciferase detection buffer (Perkin Elmer) and the RORC mRNA expression of the selected clones were quantified by qRT-PCR. […]
# [1] = tested on: human Th17 cells (total CD4+ T-cells); test: RORγt target gene expression in Th17 cells by qRT-PCR; format: cell-based; details: Th17 polarization 72 h, concentration-dependent
# Method: Total, naive and memory CD4^+ T cells were isolated from Peripheral blood mononuclear cells (PBMCs) from healthy volunteers by density gradient centrifugation using Ficoll Paque (GE). Total, naive or memory CD4^+ T-cells were prepared by immunomagnetic separation using the respective CD4^+ T-cell enrichment kits resulting in untouched highly purified subsets (EasySep™, Stem Cell). Purity was assessed by flow cytometry and was between 95 and 98% for the total CD4^+ T-cells. The purity of naive (CD45RA^+CD45RO^−) and memory (CD45RA^−CD45RO^+) CD4^+T-cells ranged between 95 and 98%, respectively. For T-cell stimulation experiments, cells were treated as previously published ([44]). Briefly, T-cells were stimulated with plate-bound monoclonal antibodies against CD3 (1 μg/ml, clone OKT-3, BioXcell) and CD28 (1 μg/ml, clone CD28.2, BioLegend). For Th17 polarization assays, IL-6 (20 ng/ml), TGF-β1 (5 ng/ml), IL-1β (10 ng/ml), and IL-23 (10 ng/ml) were added. For Th1 polarization assays, IL-12 (10 ng/ml) and anti-IL-4 antibody (5 μg/ml), for Th2 polarizations, IL-4 (10 ng/ml) and anti-IFN-γ antibody (5 μg/ml) were added. For Th0 polarization assays, cells were only stimulated with CD3 and CD28 antibodies. Supernatants were collected after 3 or 7 days of incubation for total or naive/memory CD4^+ T-cell polarizations, respectively. Cytokine concentrations were quantified by ELISA according to the manufacturer's instructions (eBioscience or BioLegend).
# Total RNA from human Th17 cells (6 × 10^5 cells), RORγt-RORE HUT78 cells (4 × 10^5 cells) and HaCaT cells (6 × 10^4 cells) was extracted using RNeasy kit including a DNAse I digestion step according to the manufacturer‘s protocol (Qiagen). Frozen skin biopsies (8 mm punches) were resuspended in RLT buffer (Qiagen) containing 1% β-mercaptoethanol and homogenized using a Precellys-Cryolys device (Bertin Instruments) according to the manufacturer's instructions. cDNAs were prepared with the High Capacity cDNA Reverse Transcription Kit (Applied Biosystems). Quantitative RT-PCR analysis was performed using a TaqManViiA7 (Applied Biosystems). All runs were accompanied by the internal control gene human β-glucoronidase (Gus) (431088E). The samples were run in triplicate or in hexaplicate and normalized to Gus using the ΔΔCt method to provide arbitrary units representing relative expression levels. The following Taqman probes were used for RT-PCR (Thermo Scientific): RORC (Hs01076112_m1), IL17A (Hs00936345_m1), IL22 (Hs01574154_m1), IL26 (Hs00218189_m1), IL23R (Hs00332759_m1), CCR6 (Hs00218189_m1), NFKBIZ (Hs00355476_m), DEFB4A (Hs00823638_m1), IL36G (Hs00219742_m1), and CCL20 (Hs00355476_m1).
# RORγt expression = RORγt expression in cultures (data not shown); format: cell-based; details: preliminary evidence
compound,measurement,setting,value
"Cc1ccc(C(=O)Nc2cn3ccnc3c(CN3CCN(c4noc(C(C)(C)C)n4)[C@@H](C)C3)c2C)cn1 [Cpd A, (S)-N-(8-((4-(5-(tert-butyl)-1,2,4-oxadiazol-3-yl)-3-methylpiperazin-1-yl)methyl)-7-methylimidazo[1,2-a]pyridin-6-yl)-6-methylnicotinamide]",activity toward RORα (LBD-GAL4 reporter),RORα,lacked activity
same,IC50,full-length RORγt,64 nM
same,CCR6 gene expression,[1],significantly attenuated
same,IL17A gene expression,[1],significantly attenuated
same,IL17F gene expression,[1],significantly attenuated
same,IL22 gene expression,[1],significantly attenuated
same,IL23R gene expression,[1],significantly attenuated
same,IL26 gene expression,[1],significantly attenuated
same,RORγt expression in cultures,RORγt expression,did not modify
